Experimental data as given in ChEMBL document CHEMBL4831500, “Discovery of first-in-class imidazothiazole-based potent and selective ErbB4 (HER4) kinase inhibitors” (Eur J Med Chem, 2021).
pIC50: −log10 of the molar value.

What was measured:
HCC 2998 [1] = assay: Antiproliferative activity against human HCC 2998 cells assessed as cell growth inhibition measured after 48 hrs by SRB assay; type: functional, cell-based; conditions: HCC 2998, 48 h
WI-38 = assay: Cytotoxicity against human WI-38 cells assessed as cell growth inhibition measured after 48 hrs by SRB assay; type: cell-based; conditions: WI-38, 48 h
NCI-H522 = assay: Antiproliferative activity against human NCI-H522 cells assessed as cell growth inhibition measured after 48 hrs by SRB assay; type: functional, cell-based; conditions: NCI-H522, 48 h
[2] = target: T1, Receptor tyrosine-protein kinase erbB-4 (Homo sapiens, UniProt Q15303); assay: Inhibition of ErbB4 (unknown origin) at 10 uM incubated for 40 mins in presence of Mg/ATP mix by [gamma p33]-ATP based scintillation counting method relative to control
T1 sequence (Q15303 whole entry): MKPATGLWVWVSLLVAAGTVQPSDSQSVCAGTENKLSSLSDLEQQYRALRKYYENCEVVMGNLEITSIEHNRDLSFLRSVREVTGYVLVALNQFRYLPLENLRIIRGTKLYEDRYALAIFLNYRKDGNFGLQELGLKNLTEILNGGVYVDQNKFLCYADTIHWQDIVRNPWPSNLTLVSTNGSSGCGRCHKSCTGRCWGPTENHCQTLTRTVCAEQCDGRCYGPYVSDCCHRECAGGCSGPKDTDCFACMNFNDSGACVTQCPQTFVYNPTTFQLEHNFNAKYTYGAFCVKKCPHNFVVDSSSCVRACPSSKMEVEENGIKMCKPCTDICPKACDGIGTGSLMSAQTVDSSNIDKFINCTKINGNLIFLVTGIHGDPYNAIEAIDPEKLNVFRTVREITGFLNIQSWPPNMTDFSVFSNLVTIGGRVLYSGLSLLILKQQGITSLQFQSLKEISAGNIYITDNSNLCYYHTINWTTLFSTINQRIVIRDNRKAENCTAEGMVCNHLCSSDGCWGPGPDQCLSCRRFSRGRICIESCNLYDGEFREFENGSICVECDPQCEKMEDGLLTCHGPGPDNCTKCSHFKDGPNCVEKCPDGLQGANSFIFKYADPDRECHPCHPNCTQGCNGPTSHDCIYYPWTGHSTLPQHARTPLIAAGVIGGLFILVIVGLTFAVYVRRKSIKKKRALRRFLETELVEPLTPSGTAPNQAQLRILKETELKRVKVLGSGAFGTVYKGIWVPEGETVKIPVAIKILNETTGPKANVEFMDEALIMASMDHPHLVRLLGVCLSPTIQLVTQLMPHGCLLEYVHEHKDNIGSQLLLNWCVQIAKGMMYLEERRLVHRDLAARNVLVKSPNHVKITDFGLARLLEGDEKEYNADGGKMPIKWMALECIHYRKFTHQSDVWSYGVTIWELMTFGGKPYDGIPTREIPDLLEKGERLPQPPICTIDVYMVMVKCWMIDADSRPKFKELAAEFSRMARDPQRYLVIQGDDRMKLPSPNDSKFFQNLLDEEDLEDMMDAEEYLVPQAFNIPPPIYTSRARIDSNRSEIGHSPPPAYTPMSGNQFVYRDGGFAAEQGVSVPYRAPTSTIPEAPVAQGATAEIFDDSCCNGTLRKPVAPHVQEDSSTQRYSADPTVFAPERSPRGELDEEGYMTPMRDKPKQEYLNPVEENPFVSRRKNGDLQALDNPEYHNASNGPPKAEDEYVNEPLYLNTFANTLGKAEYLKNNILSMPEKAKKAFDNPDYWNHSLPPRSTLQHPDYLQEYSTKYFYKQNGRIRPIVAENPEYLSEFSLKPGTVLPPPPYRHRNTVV

UO-31 [3] = assay: Antiproliferative activity against human UO-31 cells assessed as cell growth inhibition at 10 uM measured after 48 hrs by SRB assay relative to control; type: functional
[4] = target: Vascular endothelial growth factor receptor 2 (Homo sapiens, UniProt P35968); assay: Inhibition of KDR (unknown origin) at 10 uM incubated for 40 mins in presence of Mg/ATP mix by [gamma p33]-ATP based scintillation counting method relative to control
Vascular endothelial growth factor receptor 2, sequence (P35968 whole entry): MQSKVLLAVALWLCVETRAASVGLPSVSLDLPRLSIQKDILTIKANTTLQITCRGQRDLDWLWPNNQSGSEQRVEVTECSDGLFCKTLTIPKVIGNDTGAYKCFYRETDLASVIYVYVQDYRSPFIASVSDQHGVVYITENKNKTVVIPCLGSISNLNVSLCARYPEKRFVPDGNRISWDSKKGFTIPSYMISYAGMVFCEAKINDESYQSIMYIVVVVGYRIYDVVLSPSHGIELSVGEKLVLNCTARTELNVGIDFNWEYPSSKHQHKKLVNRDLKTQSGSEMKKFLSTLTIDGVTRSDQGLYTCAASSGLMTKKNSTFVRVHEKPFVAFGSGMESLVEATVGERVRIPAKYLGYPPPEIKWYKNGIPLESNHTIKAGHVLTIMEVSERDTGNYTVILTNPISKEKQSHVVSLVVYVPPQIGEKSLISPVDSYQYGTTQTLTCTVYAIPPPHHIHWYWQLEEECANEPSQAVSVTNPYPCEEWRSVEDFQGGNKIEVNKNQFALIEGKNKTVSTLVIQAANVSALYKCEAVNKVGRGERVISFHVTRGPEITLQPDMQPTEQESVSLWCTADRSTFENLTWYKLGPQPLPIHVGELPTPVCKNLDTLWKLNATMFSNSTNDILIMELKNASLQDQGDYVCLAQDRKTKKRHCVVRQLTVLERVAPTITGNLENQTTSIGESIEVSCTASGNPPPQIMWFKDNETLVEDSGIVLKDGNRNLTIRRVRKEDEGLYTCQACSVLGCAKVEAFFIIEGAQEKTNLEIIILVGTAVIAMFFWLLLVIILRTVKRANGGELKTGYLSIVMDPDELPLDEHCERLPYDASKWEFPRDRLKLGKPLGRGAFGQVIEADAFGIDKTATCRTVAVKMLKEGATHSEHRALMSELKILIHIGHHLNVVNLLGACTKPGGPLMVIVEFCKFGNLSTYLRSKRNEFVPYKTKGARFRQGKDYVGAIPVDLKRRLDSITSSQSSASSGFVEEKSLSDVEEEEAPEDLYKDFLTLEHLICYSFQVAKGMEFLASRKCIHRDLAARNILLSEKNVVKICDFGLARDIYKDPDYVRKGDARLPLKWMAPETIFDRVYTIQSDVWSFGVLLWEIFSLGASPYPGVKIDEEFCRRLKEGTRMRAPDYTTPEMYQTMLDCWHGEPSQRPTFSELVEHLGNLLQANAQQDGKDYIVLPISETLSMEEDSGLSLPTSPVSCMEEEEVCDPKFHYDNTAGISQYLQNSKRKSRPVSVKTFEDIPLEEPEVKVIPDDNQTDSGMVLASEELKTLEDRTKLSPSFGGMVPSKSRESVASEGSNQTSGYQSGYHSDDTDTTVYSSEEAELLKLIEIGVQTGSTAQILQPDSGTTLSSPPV

[5] = target: Fibroblast growth factor receptor 1 (Homo sapiens) (UniProt P11362); assay: Inhibition of FGFR1 (unknown origin) at 10 uM incubated for 40 mins in presence of Mg/ATP mix by [gamma p33]-ATP based scintillation counting method relative to control
U-251 = assay: Antiproliferative activity against human U-251 cells assessed as cell growth inhibition at 10 uM measured after 48 hrs by SRB assay relative to control; type: functional
UO-31 [6] = assay: Antiproliferative activity against human UO-31 cells assessed as cell growth inhibition measured after 48 hrs by SRB assay; type: functional, cell-based; conditions: UO-31, 48 h
MDA-MB-468 = assay: Antiproliferative activity against human MDA-MB-468 cells assessed as cell growth inhibition measured after 48 hrs by SRB assay; type: functional, cell-based; conditions: MDA-MB-468, 48 h
[7] = target: Receptor tyrosine-protein kinase erbB-2 (Homo sapiens) (UniProt P04626); assay: Inhibition of ErbB2 (unknown origin) at 10 uM incubated for 40 mins in presence of Mg/ATP mix by [gamma p33]-ATP based scintillation counting method relative to control
Receptor tyrosine-protein kinase erbB-2 (Homo sapiens), sequence (P04626 whole entry): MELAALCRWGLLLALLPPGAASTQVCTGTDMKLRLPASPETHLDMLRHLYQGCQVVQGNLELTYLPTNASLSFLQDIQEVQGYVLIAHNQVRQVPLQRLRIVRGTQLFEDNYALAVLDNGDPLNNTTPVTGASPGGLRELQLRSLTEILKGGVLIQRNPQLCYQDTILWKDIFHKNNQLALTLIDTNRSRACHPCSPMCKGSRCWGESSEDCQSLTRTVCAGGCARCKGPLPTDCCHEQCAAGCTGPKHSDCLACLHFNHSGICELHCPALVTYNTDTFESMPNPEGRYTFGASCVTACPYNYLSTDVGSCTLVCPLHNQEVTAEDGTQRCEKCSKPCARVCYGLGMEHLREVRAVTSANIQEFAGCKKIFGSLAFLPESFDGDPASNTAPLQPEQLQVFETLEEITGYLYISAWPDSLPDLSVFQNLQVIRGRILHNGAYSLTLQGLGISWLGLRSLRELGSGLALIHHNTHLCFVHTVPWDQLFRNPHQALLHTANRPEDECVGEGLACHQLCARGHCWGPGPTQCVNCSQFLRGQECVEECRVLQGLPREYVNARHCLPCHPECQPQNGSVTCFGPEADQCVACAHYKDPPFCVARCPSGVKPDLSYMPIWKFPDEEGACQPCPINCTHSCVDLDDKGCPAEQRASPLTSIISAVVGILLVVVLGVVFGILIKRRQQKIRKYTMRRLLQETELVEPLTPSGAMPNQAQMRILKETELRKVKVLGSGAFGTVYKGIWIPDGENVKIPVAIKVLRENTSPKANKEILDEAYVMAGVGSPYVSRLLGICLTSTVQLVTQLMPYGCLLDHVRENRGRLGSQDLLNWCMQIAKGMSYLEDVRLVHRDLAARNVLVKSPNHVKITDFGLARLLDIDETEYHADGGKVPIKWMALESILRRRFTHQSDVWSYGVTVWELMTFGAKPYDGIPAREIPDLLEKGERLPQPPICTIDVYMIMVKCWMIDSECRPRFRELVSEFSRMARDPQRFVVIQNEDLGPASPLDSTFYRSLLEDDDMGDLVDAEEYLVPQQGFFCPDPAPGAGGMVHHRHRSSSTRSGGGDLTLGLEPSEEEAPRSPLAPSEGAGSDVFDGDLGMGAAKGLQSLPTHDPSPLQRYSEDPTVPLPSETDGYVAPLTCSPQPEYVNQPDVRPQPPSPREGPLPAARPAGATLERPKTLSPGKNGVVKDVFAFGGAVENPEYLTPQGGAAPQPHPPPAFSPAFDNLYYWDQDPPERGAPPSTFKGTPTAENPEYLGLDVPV

Homo sapiens = species on record: Homo sapiens; assay: Selectivity ratio of IC50 for inhibition of JAK3 (unknown origin) to IC50 for inhibition of ErbB4 (unknown origin); conditions: dose 10.0 µM, time 40.0 min
[8] = target: T1, Receptor tyrosine-protein kinase erbB-4; assay: Potency index, ratio of staurosporine IC50 to test compound IC50 for inhibition of ErbB4 (unknown origin) at 10 uM incubated for 40 mins in presence of Mg/ATP mix by [gamma p33]-ATP based scintillation counting method
HCC 2998 [9] = assay: Antiproliferative activity against human HCC 2998 cells assessed as cell growth inhibition at 10 uM measured after 48 hrs by SRB assay relative to control; type: functional
[10] = target: Mitogen-activated protein kinase 10 (Homo sapiens, UniProt P53779); assay: Inhibition of JNK3 (unknown origin) incubated for 40 mins in presence of Mg/ATP mix by [gamma p33]-ATP based scintillation counting method
Mitogen-activated protein kinase 10, sequence (P53779 whole entry): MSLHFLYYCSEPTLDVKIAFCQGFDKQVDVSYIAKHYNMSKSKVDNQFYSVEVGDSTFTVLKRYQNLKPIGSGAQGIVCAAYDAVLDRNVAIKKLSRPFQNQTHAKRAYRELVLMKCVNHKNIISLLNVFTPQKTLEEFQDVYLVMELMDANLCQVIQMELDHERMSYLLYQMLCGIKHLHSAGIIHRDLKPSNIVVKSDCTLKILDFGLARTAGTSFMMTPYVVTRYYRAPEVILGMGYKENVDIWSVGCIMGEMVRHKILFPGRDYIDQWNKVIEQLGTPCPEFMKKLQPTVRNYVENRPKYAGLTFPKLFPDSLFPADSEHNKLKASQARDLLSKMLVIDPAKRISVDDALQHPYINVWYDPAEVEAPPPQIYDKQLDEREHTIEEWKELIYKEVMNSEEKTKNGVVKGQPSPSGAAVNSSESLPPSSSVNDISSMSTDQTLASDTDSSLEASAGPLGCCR

pIC50 (HCC 2998 [1]): 5.75
pIC50 (NCI-H522): 5.31
inhibition [2]: 96.1%
inhibition [4]: 24.8%
inhibition [5]: 3.33%
pIC50 (MDA-MB-468): 5.98
inhibition [7]: 2.75%
Ratio IC50 (Homo sapiens): 548
Ratio IC50 [8]: 9
pIC50 [10]: 5.28
SMILES: CS(=O)(=O)c1nccc(-c2c(-c3cccc(OCc4ccccc4)c3)nc3sccn23)n1
pIC50 (WI-38): 5.07
inhibition at 10 µM (UO-31 [3]): 96.3%
inhibition at 10 µM (U-251): 10.9%
pIC50 (UO-31 [6]): 5.81
inhibition at 10 µM (HCC 2998 [9]): 67.6%
